Experimental data taken from patent publication US20170049782A1 (SK CHEMICALS CO., LTD., priority 2014, published 2017).
Read-outs that look alike come from different tables or passages of the source.

How the values were obtained:
[1] = cited from earlier work
[2] = Solubility / dissolved fraction of active ingredient (I) in water (background); format: physicochemical
Source text: At single administration and repetitive administration, there is a difference in blood concentration depending on whether taking food or not, and food intake is blamed for causing the difference (Xia et al., British Journal of Clinical Pharmacology, 2009, 68:1, p 77-88). This is a reason for decrease of drug efficacy to patients taking food irregularly, and a negative cause, which may make patients feel uncomfortable for taking drug. […] Thus, its bioavailability reach to 100% when it is administered with food because residual insoluble drugs are absorbed by oil content present in the food and a surfactant such as bile acid secreted in the body (Samama et al. Thrombosis Journal 2013, 11:11, p 1-7).

drug dissolved in dissolution solution ([2]; 10 mg in 900 ml): ≥ 90%
drug dissolved in dissolution solution ([2]; 20 mg in 900 ml): 50%
SMILES: O=C(NC[C@H]1CN(c2ccc(N3CCOCC3=O)cc2)C(=O)O1)c1ccc(Cl)s1 [active ingredient (I)]
bioavailability ([1]; 10 mg, regardless of a meal): 100%
bioavailability ([1]; 20 mg, administered before a meal / under fasted condition): about 66%
bioavailability ([1]; 20 mg, administered with food): 100%
